Assay results reported in patent publication US9458095B2, “Oligo-benzamide compounds and their use in treating cancers” (The Board of Regents of the University of Texas System, priority 2011, dated 2016).
“Also recorded” adds a separate entry of the source.

What was measured:
Format in all cases: cell-based
AR567 = target: T1, AR567 (Homo sapiens, UniProt P10275); experiment: ARE-luciferase reporter in PC-3 cells expressing AR567; settings: 100 nM peptidomimetic, 48 h
T1 construct: expressed in transfected cells; host or cells: PC-3 cells
T1 sequence (P10275 with tags, fused parts or gaps limits assumed): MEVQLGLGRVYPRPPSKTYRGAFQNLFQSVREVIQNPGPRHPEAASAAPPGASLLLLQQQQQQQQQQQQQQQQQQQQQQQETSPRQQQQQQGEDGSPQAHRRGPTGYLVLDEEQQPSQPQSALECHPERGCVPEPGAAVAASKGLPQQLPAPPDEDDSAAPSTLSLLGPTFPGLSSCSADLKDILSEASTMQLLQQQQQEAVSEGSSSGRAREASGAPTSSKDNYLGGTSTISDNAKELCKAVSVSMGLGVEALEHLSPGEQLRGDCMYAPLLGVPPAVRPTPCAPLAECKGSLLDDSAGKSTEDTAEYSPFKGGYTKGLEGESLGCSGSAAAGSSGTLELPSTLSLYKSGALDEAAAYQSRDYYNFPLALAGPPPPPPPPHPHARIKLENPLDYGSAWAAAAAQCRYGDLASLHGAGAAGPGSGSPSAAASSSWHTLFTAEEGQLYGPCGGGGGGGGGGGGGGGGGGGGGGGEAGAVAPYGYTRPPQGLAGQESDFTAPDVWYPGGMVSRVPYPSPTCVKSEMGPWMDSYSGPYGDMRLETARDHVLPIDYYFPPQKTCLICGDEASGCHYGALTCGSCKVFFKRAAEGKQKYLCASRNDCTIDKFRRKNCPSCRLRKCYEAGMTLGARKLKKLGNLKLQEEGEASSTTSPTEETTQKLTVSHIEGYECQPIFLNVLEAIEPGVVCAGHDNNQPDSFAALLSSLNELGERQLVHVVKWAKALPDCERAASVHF
Experimental: (§1) FIGS. 3A-B. Effect of T6 on basal transcription driven by splice variants. PC-3 cells were transiently transfected with ARE-luciferase along with plasmids expressing ARv7 (FIG. 3A) or AR567 (FIG. 3B). Cells were maintained for 48 h either without (EtOH) or with (1 nM DHT) and in the presence of 100 nM of peptidomimetic or volume equivalent of vehicle (DMSO) control. Luciferase assay results are shown. Data is normalized to the basal level of expression with AR wt in PC3 cells.

ARv7 regulated genes = experiment: Q-PCR of ARv7 regulated genes; settings: data not shown
Description: Finally, confirmation of the role of T6 in modulating ARv7 driven transcription was obtained by evaluation of the gene expression of ARv7 regulated genes.

ARv7 = target: T2, ARv7 (Homo sapiens, UniProt P10275); experiment: ARE-luciferase reporter in PC-3 cells expressing ARv7; set-up: expressed in transfected cells; host or cells: PC-3 cells (A4); M12 cells (A9); settings: 100 nM peptidomimetic, 48 h
T2 sequence (P10275 1-644 isoform P10275-3): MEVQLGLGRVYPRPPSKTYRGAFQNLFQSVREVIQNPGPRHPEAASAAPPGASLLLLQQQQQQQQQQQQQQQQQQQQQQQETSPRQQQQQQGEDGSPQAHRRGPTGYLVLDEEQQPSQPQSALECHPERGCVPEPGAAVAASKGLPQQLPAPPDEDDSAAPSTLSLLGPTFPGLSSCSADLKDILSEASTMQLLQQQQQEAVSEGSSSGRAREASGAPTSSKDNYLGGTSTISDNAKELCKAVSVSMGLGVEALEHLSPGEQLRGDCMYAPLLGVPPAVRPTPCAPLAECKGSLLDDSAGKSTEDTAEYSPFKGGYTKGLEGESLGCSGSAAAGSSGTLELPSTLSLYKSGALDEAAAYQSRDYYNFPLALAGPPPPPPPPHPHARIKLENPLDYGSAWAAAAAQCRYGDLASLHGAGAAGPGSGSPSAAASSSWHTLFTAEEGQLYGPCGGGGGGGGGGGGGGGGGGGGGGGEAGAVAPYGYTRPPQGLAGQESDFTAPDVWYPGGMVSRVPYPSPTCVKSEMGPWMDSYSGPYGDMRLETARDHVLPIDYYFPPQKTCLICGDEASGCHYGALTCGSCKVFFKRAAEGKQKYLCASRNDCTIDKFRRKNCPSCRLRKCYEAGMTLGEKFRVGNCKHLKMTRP
Experimental: FIGS. 2A-D. Oligobenzamide control of PC3 cell proliferation. (FIG. 2A) Structure of AR deletion mutants with numbered exons (FIG. 2B) Effect of D2 and T6 on basal (AI) and AD transcription. PC-3 cells were transiently transfected with ARE-luciferase along with plasmids expressing ARwt (FIG. 2B), ARv7 (FIG. 2C) or ARΔ1 (FIG. 2D). Cells were maintained for 48 h either without (EtOH) or with (1 nM DHT) and in the presence of 100 nM of peptidomimetic or volume equivalent of vehicle (DMSO) control. Luciferase assay results are shown. Data is normalized to the basal level of expression with AR wt in PC3 cells.
as §1
Since the WxxLF motif is also present in the truncated forms of the androgen receptor, the inventors then evaluated the ability of the peptidomimetics to block ARv7-driven transcription from a minimal ARE luciferase reporter. […]

**Q.** How did the “transcription driven by AR567 splice variant” value (AR567) turn out when CC(C)COc1cc(C(N)=O)ccc1NC(=O)c1ccc(NC(=O)c2ccc([N+](=O)[O-])c(OCCc3ccc4ccccc4c3)c2)c(OCC(C)C)c1 [T6] was run?
**A.** decreases

**Q.** And the “expression of a panel of ARv7 regulated genes (Q-PCR)” value (ARv7 regulated genes)?
**A.** able to abrogate

**Q.** And the ARv7-mediated transcription (ARv7)?
**A.** able to block; also recorded: decreases
